Reference: ChEMBL document CHEMBL3885881, “DrugMatrix”

Species on record: Rattus norvegicus
Experiment: DrugMatrix - Regimen: Daily Repeat
Assay type: toxicity, organism-based, Sprague-Dawley
Parameters: regimen Daily Repeat, gender Male, age 6-8 weeks
Conditions: in vivo, po, 16 mg/kg, route oral GAVAGE, dose level Low, […]; for ABSOLUTE BASOPHIL / ABSOLUTE EOSINOPHIL / ABSOLUTE LYMPHOCYTE / ABSOLUTE MONOCYTE / ABSOLUTE SEGMENTED NEUTROPHIL / BASOPHIL / EOSINOPHIL / ERYTHROCYTE COUNT / HEMATOCRIT / HEMOGLOBIN / LEUKOCYTE COUNT / LYMPHOCYTE / MEAN CORPUSCULAR HEMOGLOBIN / MEAN CORPUSCULAR HEMOGLOBIN CONCENTRATION / MEAN CORPUSCULAR VOLUME / MONOCYTE / NEUTROPHIL / NUCLEATED RED BLOOD CELLS / PLATELET COUNT: tissue Blood; for ALANINE AMINOTRANSFERASE / ALBUMIN / ALKALINE PHOSPHATASE / ASPARTATE AMINOTRANSFERASE / BLOOD UREA NITROGEN / CARBON DIOXIDE / CHLORIDE / CHOLESTEROL / CREATINE PHOSPHOKINASE / CREATININE / GLUCOSE / LACTATE DEHYDROGENASE / LIPASE / PHOSPHORUS / POTASSIUM / SODIUM / TOTAL BILIRUBIN / TOTAL PROTEIN / URIC ACID: tissue Plasma

Q: `O=C(O)c1cc(-c2ccc(F)cc2F)ccc1O` [DIFLUNISAL] was tested. Which “ABSOLUTE BASOPHIL” value (72 h, time 3 day) did it give?
A: The value was 0 CELLS/uL.

Q: And the “ABSOLUTE EOSINOPHIL” value (72 h, time 3 day)?
A: Its value is 52.33 CELLS/uL.

Q: And the “ABSOLUTE LYMPHOCYTE” value (72 h, time 3 day)?
A: The value was 12636.67 CELLS/uL.

Q: What about the “ABSOLUTE MONOCYTE” value (72 h, time 3 day) of the same molecule?
A: The value was 104.67 CELLS/uL.

Q: What about the “ABSOLUTE SEGMENTED NEUTROPHIL” value (72 h, time 3 day) of the same molecule?
A: The value was 1073 CELLS/uL.

Q: What about the BASOPHIL (72 h, time 3 day) of the same molecule?
A: Its BASOPHIL is 0%.

Q: What about the EOSINOPHIL (72 h, time 3 day) of the same molecule?
A: The EOSINOPHIL was 0.33%.

Q: And the “ERYTHROCYTE COUNT” value (72 h, time 3 day)?
A: The value was 5.44 x10E6/uL.

Q: What about the HEMATOCRIT (72 h, time 3 day) of the same molecule?
A: Its HEMATOCRIT is 33.4%.

Q: And the HEMOGLOBIN (72 h, time 3 day)?
A: The HEMOGLOBIN was 13.27 G/DL.

Q: And the “LEUKOCYTE COUNT” value (72 h, time 3 day)?
A: The value was 13.87 x10E3/uL.

Q: What about the LYMPHOCYTE (72 h, time 3 day) of the same molecule?
A: Its LYMPHOCYTE is 91.33%.

Q: And the “MEAN CORPUSCULAR HEMOGLOBIN” value (72 h, time 3 day)?
A: Its value is 24.4 pg.

Q: What about the “MEAN CORPUSCULAR HEMOGLOBIN CONCENTRATION” value (72 h, time 3 day) of the same molecule?
A: Its value is 39.73 G/DL.

Q: What about the “MEAN CORPUSCULAR VOLUME” value (72 h, time 3 day) of the same molecule?
A: Its value is 61.47 fL.

Q: What about the MONOCYTE (72 h, time 3 day) of the same molecule?
A: Its MONOCYTE is 0.67%.

Q: What about the NEUTROPHIL (72 h, time 3 day) of the same molecule?
A: Its NEUTROPHIL is 7.67%.

Q: What about the “NUCLEATED RED BLOOD CELLS” value (72 h, time 3 day) of the same molecule?
A: The value was 0 /100WBC.

Q: What about the “PLATELET COUNT” value (72 h, time 3 day) of the same molecule?
A: The value was 1096.67 x10E3/uL.

Q: And the “ALANINE AMINOTRANSFERASE” value (72 h, time 3 day)?
A: Its value is 65.33 u/L.

Q: And the ALBUMIN (72 h, time 3 day)?
A: The ALBUMIN was 3.77 G/DL.

Q: What about the “ALKALINE PHOSPHATASE” value (72 h, time 3 day) of the same molecule?
A: Its value is 396.67 u/L.

Q: What about the “ASPARTATE AMINOTRANSFERASE” value (72 h, time 3 day) of the same molecule?
A: The value was 93.33 u/L.

Q: And the “BLOOD UREA NITROGEN” value (72 h, time 3 day)?
A: The value was 10.67 mg/dL.

Q: And the “CARBON DIOXIDE” value (72 h, time 3 day)?
A: The value was 29.67 mmol/L.

Q: And the CHLORIDE (72 h, time 3 day)?
A: Its CHLORIDE is 100 MEQ/L.

Q: And the CHOLESTEROL (72 h, time 3 day)?
A: The CHOLESTEROL was 80.67 mg/dL.

Q: And the “CREATINE PHOSPHOKINASE” value (72 h, time 3 day)?
A: Its value is 405 u/L.

Q: What about the CREATININE (72 h, time 3 day) of the same molecule?
A: The CREATININE was 0.14 mg/dL.

Q: And the GLUCOSE (72 h, time 3 day)?
A: Its GLUCOSE is 166.67 mg/dL.

Q: What about the “LACTATE DEHYDROGENASE” value (72 h, time 3 day) of the same molecule?
A: The value was 130 u/L.

Q: What about the LIPASE (72 h, time 3 day) of the same molecule?
A: The LIPASE was 11.33 u/L.

Q: And the PHOSPHORUS (72 h, time 3 day)?
A: The PHOSPHORUS was 11.43 mg/dL.

Q: What about the POTASSIUM (72 h, time 3 day) of the same molecule?
A: Its POTASSIUM is 6.17 MEQ/L.

Q: And the SODIUM (72 h, time 3 day)?
A: The SODIUM was 141.97 MEQ/L.

Q: And the “TOTAL BILIRUBIN” value (72 h, time 3 day)?
A: Its value is 0.13 mg/dL.

Q: And the “TOTAL PROTEIN” value (72 h, time 3 day)?
A: Its value is 5.47 G/DL.

Q: And the “URIC ACID” value (72 h, time 3 day)?
A: The value was 1.53 mg/dL.

Q: What about the “ABSOLUTE BASOPHIL” value (120 h, time 5 day) of the same molecule?
A: Its value is 0 CELLS/uL.

Q: What about the “ABSOLUTE EOSINOPHIL” value (120 h, time 5 day) of the same molecule?
A: Its value is 84.67 CELLS/uL.

Q: What about the “ABSOLUTE LYMPHOCYTE” value (120 h, time 5 day) of the same molecule?
A: Its value is 10265 CELLS/uL.

Q: What about the “ABSOLUTE MONOCYTE” value (120 h, time 5 day) of the same molecule?
A: The value was 157.67 CELLS/uL.

Q: And the “ABSOLUTE SEGMENTED NEUTROPHIL” value (120 h, time 5 day)?
A: The value was 1026 CELLS/uL.

Q: And the BASOPHIL (120 h, time 5 day)?
A: The BASOPHIL was 0%.

Q: And the EOSINOPHIL (120 h, time 5 day)?
A: Its EOSINOPHIL is 0.67%.

Q: And the “ERYTHROCYTE COUNT” value (120 h, time 5 day)?
A: Its value is 5.28 x10E6/uL.

Q: What about the HEMATOCRIT (120 h, time 5 day) of the same molecule?
A: The HEMATOCRIT was 33.5%.

Q: What about the HEMOGLOBIN (120 h, time 5 day) of the same molecule?
A: The HEMOGLOBIN was 13.6 G/DL.

Q: And the “LEUKOCYTE COUNT” value (120 h, time 5 day)?
A: Its value is 11.53 x10E3/uL.

Q: And the LYMPHOCYTE (120 h, time 5 day)?
A: Its LYMPHOCYTE is 89%.

Q: And the “MEAN CORPUSCULAR HEMOGLOBIN” value (120 h, time 5 day)?
A: The value was 25.73 pg.

Q: What about the “MEAN CORPUSCULAR HEMOGLOBIN CONCENTRATION” value (120 h, time 5 day) of the same molecule?
A: The value was 40.63 G/DL.

Q: And the “MEAN CORPUSCULAR VOLUME” value (120 h, time 5 day)?
A: The value was 63.37 fL.

Q: What about the MONOCYTE (120 h, time 5 day) of the same molecule?
A: The MONOCYTE was 1.33%.

Q: What about the NEUTROPHIL (120 h, time 5 day) of the same molecule?
A: The NEUTROPHIL was 9%.

Q: What about the “NUCLEATED RED BLOOD CELLS” value (120 h, time 5 day) of the same molecule?
A: The value was 0.33 /100WBC.

Q: What about the “PLATELET COUNT” value (120 h, time 5 day) of the same molecule?
A: The value was 1107.33 x10E3/uL.

Q: What about the “ALANINE AMINOTRANSFERASE” value (120 h, time 5 day) of the same molecule?
A: Its value is 56 u/L.

Q: And the ALBUMIN (120 h, time 5 day)?
A: The ALBUMIN was 4.13 G/DL.

Q: What about the “ALKALINE PHOSPHATASE” value (120 h, time 5 day) of the same molecule?
A: The value was 404.33 u/L.

Q: What about the “ASPARTATE AMINOTRANSFERASE” value (120 h, time 5 day) of the same molecule?
A: The value was 84.33 u/L.

Q: What about the “BLOOD UREA NITROGEN” value (120 h, time 5 day) of the same molecule?
A: The value was 16 mg/dL.

Q: And the “CARBON DIOXIDE” value (120 h, time 5 day)?
A: Its value is 25.33 mmol/L.

Q: And the CHLORIDE (120 h, time 5 day)?
A: Its CHLORIDE is 102.33 MEQ/L.

Q: What about the CHOLESTEROL (120 h, time 5 day) of the same molecule?
A: Its CHOLESTEROL is 68.67 mg/dL.

Q: What about the “CREATINE PHOSPHOKINASE” value (120 h, time 5 day) of the same molecule?
A: The value was 379.67 u/L.

Q: What about the CREATININE (120 h, time 5 day) of the same molecule?
A: The CREATININE was 0.23 mg/dL.

Q: And the GLUCOSE (120 h, time 5 day)?
A: Its GLUCOSE is 159.33 mg/dL.

Q: What about the “LACTATE DEHYDROGENASE” value (120 h, time 5 day) of the same molecule?
A: Its value is 227 u/L.

Q: And the LIPASE (120 h, time 5 day)?
A: Its LIPASE is 11.67 u/L.

Q: And the PHOSPHORUS (120 h, time 5 day)?
A: The PHOSPHORUS was 11.33 mg/dL.

Q: What about the POTASSIUM (120 h, time 5 day) of the same molecule?
A: The POTASSIUM was 6.39 MEQ/L.

Q: And the SODIUM (120 h, time 5 day)?
A: Its SODIUM is 143.53 MEQ/L.

Q: And the “TOTAL BILIRUBIN” value (120 h, time 5 day)?
A: The value was 0.17 mg/dL.

Q: And the “TOTAL PROTEIN” value (120 h, time 5 day)?
A: The value was 5.47 G/DL.

Q: And the “URIC ACID” value (120 h, time 5 day)?
A: The value was 1.67 mg/dL.
